Experimental data: PMC2632761 (Journal of biomolecular screening, 2009)
Where two headings read alike, the source gives them in different places.

Legend:
[1] = biological target: T1, AR-LBD (androgen receptor) (Pan troglodytes, UniProt O97775); experiment: AR SPA ligand competition binding assay
T1 sequence (O97775 655-911 limits assumed): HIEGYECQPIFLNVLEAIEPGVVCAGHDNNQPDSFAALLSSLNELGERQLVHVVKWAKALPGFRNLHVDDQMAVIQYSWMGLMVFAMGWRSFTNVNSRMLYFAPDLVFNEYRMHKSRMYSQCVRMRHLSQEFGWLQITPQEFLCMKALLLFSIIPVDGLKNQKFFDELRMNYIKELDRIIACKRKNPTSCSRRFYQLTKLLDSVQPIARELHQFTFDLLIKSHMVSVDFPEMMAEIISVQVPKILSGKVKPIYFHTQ

[2] = biological target: T2, hTRα (Homo sapiens, UniProt P10827); experiment: TRα SPA ligand competition binding assay
T2 sequence (P10827 148-410 isoform P10827-2 limits assumed): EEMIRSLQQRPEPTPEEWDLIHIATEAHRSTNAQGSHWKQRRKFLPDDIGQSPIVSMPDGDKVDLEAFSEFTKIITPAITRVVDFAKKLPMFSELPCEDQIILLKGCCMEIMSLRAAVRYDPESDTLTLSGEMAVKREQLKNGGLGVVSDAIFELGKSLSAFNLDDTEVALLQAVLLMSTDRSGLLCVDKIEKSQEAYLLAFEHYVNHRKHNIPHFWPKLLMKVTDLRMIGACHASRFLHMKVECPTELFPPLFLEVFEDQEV

[3] = biological target: T3, hTRβ (Homo sapiens, UniProt P10828); experiment: TRβ SPA ligand competition binding assay
T3 sequence (P10828 217-461 limits assumed): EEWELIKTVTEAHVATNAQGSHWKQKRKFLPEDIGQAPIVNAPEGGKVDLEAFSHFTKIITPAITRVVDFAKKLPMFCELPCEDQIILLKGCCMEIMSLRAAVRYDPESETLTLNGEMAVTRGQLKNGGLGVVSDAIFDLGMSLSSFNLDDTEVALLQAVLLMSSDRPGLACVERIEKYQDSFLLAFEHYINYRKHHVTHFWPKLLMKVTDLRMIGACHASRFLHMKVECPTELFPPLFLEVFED

[4] = biological target: T4, hPPARγ (Homo sapiens, UniProt P37231); experiment: PPARγ SPA ligand competition binding assay
T4 sequence (P37231 238-503 limits assumed): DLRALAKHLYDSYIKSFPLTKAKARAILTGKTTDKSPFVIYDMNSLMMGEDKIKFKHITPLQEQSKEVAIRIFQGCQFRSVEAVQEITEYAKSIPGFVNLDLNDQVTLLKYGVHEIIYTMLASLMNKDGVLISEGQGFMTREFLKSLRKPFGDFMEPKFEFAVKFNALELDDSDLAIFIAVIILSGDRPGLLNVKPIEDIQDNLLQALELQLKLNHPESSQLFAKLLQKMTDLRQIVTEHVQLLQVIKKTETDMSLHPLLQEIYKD

CC(C)(O)C(=O)Nc1ccc([N+](=O)[O-])c(C(F)(F)F)c1 [Hydroxyflutamide]
IC50 [1]: 33 ± 8 µM

O=C(O)Cc1cc(I)c(Oc2cc(I)c(O)c(I)c2)c(I)c1 [T4Ac, 3,3’,5,5’-tetraiodothyroacetic acid]
IC50 ([2]; read-out: IC50 TRα, SPA competition, 1 nM [125I]-T3): 10 ± 2 µM
IC50 ([3]; read-out: IC50 TRβ, SPA competition, 1 nM [125I]-T3): 5 ± 2 µM

O=C(O)c1cc(I)c(Oc2ccc(O)c(I)c2)c(I)c1 [T3Bz, 4-(4'-Hydroxy-3'-iodophenoxy)-3,5-diiodo-benzoic acid]
IC50 [2]: 12 ± 2 µM
IC50 [3]: 10 ± 4 µM

CCCCC/C=C\C/C=C\C/C=C\C/C=C\CCCC(=O)O [Arachidonic Acid]
IC50 [4]: 4.2 ± 0.53 µM

CCCCC/C=C\C/C=C\CCCCCCCC(=O)O [Lineolic Acid]
IC50 [4]: 3.8 ± 0.49 µM

C[C@]1(O)CC[C@H]2[C@@H]3CCC4=CC(=O)CCC4=C3C=C[C@@]21C [Methyltrienolone (R1881), Methyltrienolone]
IC50 ([1]; IC50 AR): 0.11 ± 0.02 µM

O=C(Nc1ccccc1)c1cc([N+](=O)[O-])ccc1Cl [GW9662]
IC50 ([4]; read-out: IC50 PPARγ, SPA competition, 40 nM [3H]-Rosiglitazone): 0.23 ± 0.02 µM
